# Columns and labels:
# [1] = in water; cited from earlier work
# db/db mice = experiment: In vivo assay in db/db mice (blood glucose, body weight, food consumption); conditions: for db/db mice - Mean Blood Glucose, 10 hr: 10 hr after first dose; for db/db mice - Mean Blood Glucose, 24 hr: 24 hr after first dose; for db/db mice - Mean Blood Glucose, 48 hr: 48 hr after first dose
# Description: The 60 female db/db B6BKS (D) Leprdb/J (strain 000697) mice for this study were approximately 8 to 9 weeks old at arrival (Jackson Laboratory, Bar Harbor, Me.). […] One group of 8 female mice served as the vehicle control and received the vehicle, 0.2% BSA in saline, pH 7.4. One additional group of 8 female mice received the positive control article, liraglutide, at a dose level of 50 nmoles/kg. The test articles, vehicle, and positive control article were administered on Day 1, at approximately 0, 7, and 24 hours during the study via subcutaneous injection at a dose volume of 6 mL/kg.
# Clinical observations were conducted at receipt, prior to randomization, and daily from Days 1 to 5. Body weights were measured and recorded at receipt, prior to randomization, and daily from Days 1 to 5. Food consumption was measured and recorded daily from Days 1 to 5. Blood samples for glucose analysis were collected pretest (Day −3) and at 0, 1, 2, 4, 8, 10, 24, 48, 72, and 96 hours following the first dose on Day 1. At study termination all animals were euthanized and the carcasses were discarded without further evaluation.
# glucagon R = molecular target: T1, glucagon R (Homo sapiens, UniProt P47871); experiment: DiscoveRx LeadHunter cellular assay, cAMP stimulation, glucagon receptor; assay type: cell-based
# T1 construct: host or cells: CHO cells
# T1 sequence (P47871 26-477): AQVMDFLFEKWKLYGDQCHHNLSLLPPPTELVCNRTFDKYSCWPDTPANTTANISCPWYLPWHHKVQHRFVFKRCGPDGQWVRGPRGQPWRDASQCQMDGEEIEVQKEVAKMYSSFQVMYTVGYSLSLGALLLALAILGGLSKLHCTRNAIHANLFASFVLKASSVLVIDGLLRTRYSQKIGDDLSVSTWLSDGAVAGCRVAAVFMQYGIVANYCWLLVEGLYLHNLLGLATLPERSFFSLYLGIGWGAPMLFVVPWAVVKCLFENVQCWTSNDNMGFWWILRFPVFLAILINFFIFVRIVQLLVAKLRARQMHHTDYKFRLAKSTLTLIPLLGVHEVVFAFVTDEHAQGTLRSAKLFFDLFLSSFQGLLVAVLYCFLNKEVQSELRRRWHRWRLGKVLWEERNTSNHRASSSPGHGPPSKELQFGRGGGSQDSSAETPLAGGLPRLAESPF
# Description: (§1) § means superagonist A further series of cellular assays were carried out using standard cellular assays (DiscoveRx, LeadHunter assays) using readout of cAMP stimulation or arrestin activation. Compounds were weighed precisely in an amount of approximately 1 mg and shipped to DiscoveRx for dilution and assay.
# GLP-1 R = GLP-1 R (Homo sapiens, UniProt P43220); experiment: DiscoveRx LeadHunter cellular assay, cAMP stimulation, GLP-1 receptor; assay type: cell-based
# Chain of GLP-1 R (P43220 24-463): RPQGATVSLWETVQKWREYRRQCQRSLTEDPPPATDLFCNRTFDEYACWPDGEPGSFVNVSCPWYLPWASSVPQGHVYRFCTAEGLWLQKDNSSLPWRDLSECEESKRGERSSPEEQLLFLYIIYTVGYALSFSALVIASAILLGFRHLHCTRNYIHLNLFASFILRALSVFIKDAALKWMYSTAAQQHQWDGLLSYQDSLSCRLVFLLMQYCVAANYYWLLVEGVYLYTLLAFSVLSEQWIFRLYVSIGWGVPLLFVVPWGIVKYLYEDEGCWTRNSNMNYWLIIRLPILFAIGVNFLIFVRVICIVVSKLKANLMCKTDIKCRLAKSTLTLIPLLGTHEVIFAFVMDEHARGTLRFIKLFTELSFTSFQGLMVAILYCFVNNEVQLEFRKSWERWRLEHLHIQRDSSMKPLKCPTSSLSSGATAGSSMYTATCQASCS
# Description: as §1
Compound,CMC (critical micelle concentration) [1],"db/db mice - Mean Blood Glucose, 0 hr (db/db mice; 250 nmole/kg s.c.)","db/db mice - Mean Blood Glucose, 10 hr (db/db mice; 250 nmole/kg s.c.)","db/db mice - Mean Blood Glucose, 24 hr (db/db mice; 250 nmole/kg s.c.)","db/db mice - Mean Blood Glucose, 48 hr (db/db mice; 250 nmole/kg s.c.)",EC50 (glucagon R),other results
CCCCCCCCCCCCCCO[C@@H]1O[C@H](CO)[C@@H](O[C@@H]2O[C@@H](CO)[C@H](O)[C@@H](O)[C@@H]2O)[C@H](O)[C@H]1O (stereo in doubt) [Tetradecyl maltoside],0.01 mM,–,–,–,–,–,–
CCCCCCCCCCCCCO[C@@H]1O[C@H](CO)[C@@H](OC2OC(CO)C(O)C(O)C2O)[C@H](O)[C@H]1O (stereo in doubt) [Tridecyl maltoside],0.03 mM,–,–,–,–,–,–
CCCCCCCCCCO[C@@H]1O[C@H](CO)[C@@H](O[C@H]2O[C@H](CO)[C@@H](O)[C@H](O)[C@H]2O)[C@H](O)[C@H]1O [Decyl maltoside],1.8 mM,–,–,–,–,–,–
CCCCCCCCCCCCO[C@@H]1O[C@H](CO)[C@@H](O[C@H]2O[C@H](CO)[C@@H](O)[C@H](O)[C@H]2O)[C@H](O)[C@H]1O [Dodecyl-β-D-maltoside],0.17 mM,–,–,–,–,–,–
"CCCCCCCCO[C@@H]1O[C@H](C(=O)NCCCC[C@H](NC(=O)[C@@H](NC(=O)[C@H](Cc2ccccc2)NC(=O)[C@H](CCC(=O)O)NC(=O)[C@@H]2CCCCNC(=O)CC[C@H](NC(=O)[C@H](CC(=O)O)NC(=O)[C@H](CC(C)C)NC(=O)[C@H](Cc3ccc(O)cc3)NC(=O)[C@H](CCCCN)NC(=O)[C@H](CO)NC(=O)[C@H](Cc3ccc(O)cc3)NC(=O)[C@H](CC(=O)O)NC(=O)[C@H](CO)NC(=O)[C@@H](NC(=O)[C@H](Cc3ccccc3)NC(=O)[C@@H](NC(=O)CNC(=O)[C@H](CCC(N)=O)NC(=O)C(C)(C)NC(=O)[C@@H](N)Cc3c[nH]cn3)[C@@H](C)O)[C@@H](C)O)C(=O)N[C@@H](CCC(N)=O)C(=O)N[C@@H](C)C(=O)N[C@@H](C)C(=O)N2)[C@@H](C)CC)C(=O)N[C@@H](Cc2c[nH]c3ccccc23)C(=O)N[C@@H](CC(C)C)C(=O)N[C@@H](CC(C)C)C(=O)N[C@@H](CCC(N)=O)C(=O)N[C@H](C(N)=O)[C@@H](C)O)[C@@H](O)[C@H](O)[C@H]1O [EU-A992, His1-Aib2-Gln3-Gly4-Thr5-Phe6-Thr7-Ser8-Asp9-Tyr10-Ser11-Lys12-Tyr13-Leu14-Asp15-Glu*16-Gln17 Ala18-Ala19-Lys*20-Glu21-Phe22-Ile23-Lys(N-omega(1-octylbeta-D-glucuronyl))24-Trp25-Leu26-Leu27-Gln28-Thr29-NH2]",–,405 mg/dL,104 mg/dL,112 mg/dL,130 mg/dL,19 pM,–
"CCCCCCCCCCCCO[C@@H]1O[C@H](CO[C@H]2O[C@H](C(=O)NCCCC[C@H](NC(=O)[C@@H](NC(=O)[C@H](Cc3ccccc3)NC(=O)[C@H](CCC(=O)O)NC(=O)[C@@H]3CCCCNC(=O)CC[C@H](NC(=O)[C@H](CC(=O)O)NC(=O)[C@H](CC(C)C)NC(=O)[C@H](Cc4ccc(O)cc4)NC(=O)[C@H](CCCCN)NC(=O)[C@H](CO)NC(=O)[C@H](Cc4ccc(O)cc4)NC(=O)[C@H](CC(=O)O)NC(=O)[C@H](CO)NC(=O)[C@@H](NC(=O)[C@H](Cc4ccccc4)NC(=O)[C@@H](NC(=O)CNC(=O)[C@H](CCC(N)=O)NC(=O)C(C)(C)NC(=O)[C@@H](N)Cc4c[nH]cn4)[C@@H](C)O)[C@@H](C)O)C(=O)N[C@@H](CCC(N)=O)C(=O)N[C@@H](C)C(=O)N[C@@H](C)C(=O)N3)[C@@H](C)CC)C(=O)N[C@@H](Cc3c[nH]c4ccccc34)C(=O)N[C@@H](CC(C)C)C(=O)N[C@@H](CC(C)C)C(=O)N[C@@H](CCC(N)=O)C(=O)N[C@H](C(N)=O)[C@@H](C)O)[C@H](O)[C@H](O)[C@H]2O)[C@@H](O)[C@H](O)[C@H]1O [EU-A1023, His1-Aib2-Gln3-Gly4-Thr5-Phe6-Thr7-Ser8-Asp9-Tyr10-Ser11-Lys12-Tyr13-Leu14-Asp15-Glu*16-Gln17 Ala18-Ala19-Lys*20-Glu21-Phe22-Ile23-Lys(N-omega(1-dodecylbeta-D-melibiouronyl))24-Trp25-Leu26-Leu27-Gln28-Thr29-NH2]",–,508 mg/dL,264 mg/dL,194 mg/dL,375 mg/dL,–,"db/db mice - Mean Blood Glucose, 0 hr (db/db mice; 50 nmole/kg s.c.): 507 mg/dL; db/db mice - Mean Blood Glucose, 10 hr (db/db mice; 50 nmole/kg s.c.): 310 mg/dL; db/db mice - Mean Blood Glucose, 24 hr (db/db mice; 50 nmole/kg s.c.): 355 mg/dL; db/db mice - Mean Blood Glucose, 48 hr (db/db mice; 50 nmole/kg s.c.): 375 mg/dL"
"CCCCCCCCCCO[C@@H]1O[C@H](C(=O)NCCCC[C@H](NC(=O)[C@@H](NC(=O)[C@H](Cc2ccccc2)NC(=O)[C@H](CCC(=O)O)NC(=O)[C@@H]2CCCCNC(=O)CC[C@H](NC(=O)[C@H](CC(=O)O)NC(=O)[C@H](CC(C)C)NC(=O)[C@H](Cc3ccc(O)cc3)NC(=O)[C@H](CCCCN)NC(=O)[C@H](CO)NC(=O)[C@H](Cc3ccc(O)cc3)NC(=O)[C@H](CC(=O)O)NC(=O)[C@H](CO)NC(=O)[C@@H](NC(=O)[C@H](Cc3ccccc3)NC(=O)[C@@H](NC(=O)CNC(=O)[C@H](CCC(N)=O)NC(=O)C(C)(C)NC(=O)[C@@H](N)Cc3c[nH]cn3)[C@@H](C)O)[C@@H](C)O)C(=O)N[C@@H](CCC(N)=O)C(=O)N[C@@H](C)C(=O)N[C@@H](C)C(=O)N2)[C@@H](C)CC)C(=O)N[C@@H](Cc2c[nH]c3ccccc23)C(=O)N[C@@H](CC(C)C)C(=O)N[C@@H](CC(C)C)C(=O)N[C@@H](CCC(N)=O)C(=O)N[C@H](C(N)=O)[C@@H](C)O)[C@@H](O)[C@H](O)[C@H]1O [EU-A1167, His1-Aib2-Gln3-Gly4-Thr5-Phe6-Thr7-Ser8-Asp9-Tyr10-Ser11-Lys12-Tyr13-Leu14-Asp15-Glu*16-Gln17 Ala18-Ala19-Lys*20-Glu21-Phe22-Ile23-Lys(N-omega(1-decylbeta-D-glucuronyl))24-Trp25-Leu26-Leu27-Gln28-Thr29-NH2]",–,379 mg/dL,171 mg/dL,117 mg/dL,113 mg/dL,19 pM,EC50 (GLP-1 R): 13 pM
"CCCCCCCCCCCO[C@@H]1O[C@H](C(=O)NCCCC[C@H](NC(=O)[C@@H](NC(=O)[C@H](Cc2ccccc2)NC(=O)[C@H](CCC(=O)O)NC(=O)[C@@H]2CCCCNC(=O)CC[C@H](NC(=O)[C@H](CC(=O)O)NC(=O)[C@H](CC(C)C)NC(=O)[C@H](Cc3ccc(O)cc3)NC(=O)[C@H](CCCCN)NC(=O)[C@H](CO)NC(=O)[C@H](Cc3ccc(O)cc3)NC(=O)[C@H](CC(=O)O)NC(=O)[C@H](CO)NC(=O)[C@@H](NC(=O)[C@H](Cc3ccccc3)NC(=O)[C@@H](NC(=O)CNC(=O)[C@H](CCC(N)=O)NC(=O)C(C)(C)NC(=O)[C@@H](N)Cc3c[nH]cn3)[C@@H](C)O)[C@@H](C)O)C(=O)N[C@@H](CCC(N)=O)C(=O)N[C@@H](C)C(=O)N[C@@H](C)C(=O)N2)[C@@H](C)CC)C(=O)N[C@@H](Cc2c[nH]c3ccccc23)C(=O)N[C@@H](CC(C)C)C(=O)N[C@@H](CC(C)C)C(=O)N[C@@H](CCC(N)=O)C(=O)N[C@H](C(N)=O)[C@@H](C)O)[C@@H](O)[C@H](O)[C@H]1O [EU-A1168, His1-Aib2-Gln3-Gly4-Thr5-Phe6-Thr7-Ser8-Asp9-Tyr10-Ser11-Lys12-Tyr13-Leu14-Asp15-Glu*16-Gln17 Ala18-Ala19-Lys*20-Glu21-Phe22-Ile23-Lys(N-omega(1-undecylbeta-D-glucuronyl))24-Trp25-Leu26-Leu27-Gln28-Thr29-NH2]",–,380 mg/dL,133 mg/dL,169 mg/dL,164 mg/dL,140 pM,EC50 (GLP-1 R): 70 pM
CCCCCCCCO[C@@H]1O[C@H](CO)[C@@H](O[C@H]2O[C@H](CO)[C@@H](O)[C@H](O)[C@H]2O)[C@H](O)[C@H]1O [Octyl maltoside],19.5 mM,–,–,–,–,–,–
Sucrose dodecanoate,0.3 mM,–,–,–,–,–,–

# From patent US11065304B2, “Peptide pharmaceuticals for insulin resistance” (MEDERIS DIABETES, LLC, priority 2012, dated 2021)
